# Reference: ChEMBL document CHEMBL1137602, “Synthesis of aromatic compounds containing a 1,1-dialkyl-2-trifluoromethyl group, a bioisostere of the tert-alkyl moiety” (Bioorg Med Chem Lett, 2007)
# What was measured:
# [1] = Intrinsic clearance in human liver microsomes; assay type: ADME, Microsome
# [2] = biological target: Transient receptor potential cation channel subfamily V member 1 (Homo sapiens, UniProt Q8NER1); assay: Antagonist activity at human TRPV1 receptor; assay type: functional
# Liver microsomes = assay: Metabolic stability in human liver microsomes; assay type: ADME, Microsome
# Sequence of Transient receptor potential cation channel subfamily V member 1 (Q8NER1 whole entry): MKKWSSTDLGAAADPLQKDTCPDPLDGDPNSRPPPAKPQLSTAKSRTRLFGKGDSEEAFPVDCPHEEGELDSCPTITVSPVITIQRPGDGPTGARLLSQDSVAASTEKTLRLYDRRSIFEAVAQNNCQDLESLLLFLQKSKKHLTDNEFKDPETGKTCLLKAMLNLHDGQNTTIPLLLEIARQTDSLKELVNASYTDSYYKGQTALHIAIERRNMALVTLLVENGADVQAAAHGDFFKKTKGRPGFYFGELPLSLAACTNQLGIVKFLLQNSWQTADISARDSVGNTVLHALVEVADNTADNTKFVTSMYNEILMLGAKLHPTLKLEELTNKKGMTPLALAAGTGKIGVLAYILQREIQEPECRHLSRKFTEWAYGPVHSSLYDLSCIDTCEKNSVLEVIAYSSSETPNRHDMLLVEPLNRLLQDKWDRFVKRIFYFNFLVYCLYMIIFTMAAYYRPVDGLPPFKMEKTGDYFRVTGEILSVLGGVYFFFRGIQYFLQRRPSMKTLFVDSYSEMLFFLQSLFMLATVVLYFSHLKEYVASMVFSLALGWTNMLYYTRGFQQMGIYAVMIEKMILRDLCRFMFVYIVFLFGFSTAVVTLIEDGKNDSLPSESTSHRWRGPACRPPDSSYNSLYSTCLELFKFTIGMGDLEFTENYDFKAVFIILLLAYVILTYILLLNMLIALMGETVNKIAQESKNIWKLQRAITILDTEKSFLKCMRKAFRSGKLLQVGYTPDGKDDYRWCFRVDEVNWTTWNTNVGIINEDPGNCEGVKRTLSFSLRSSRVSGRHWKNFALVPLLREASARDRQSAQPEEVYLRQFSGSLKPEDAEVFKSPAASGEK
CLint scaled [1],IC50 [2],microsomal CLint [1],Activity (Liver microsomes),SMILES
< 10.5 mL/min/kg,200 nM,,,O=C(Nc1ccc(C(F)(F)F)cc1)c1ccc(-c2ncccc2Cl)cc1
,,87.9 µL/min/mg,,COc1ccc(C(C)(C)C)cc1CN[C@H]1CCCN[C@H]1c1ccccc1
168 mL/min/kg,37 nM,,,CC(C)(C)c1ccc(NC(=O)c2ccc(-c3ncccc3Cl)cc2)cc1
46 mL/min/kg,42 nM,,Active,CC(C)(c1ccc(NC(=O)c2ccc(-c3ncccc3Cl)cc2)cc1)C(F)(F)F
,,44.7 µL/min/mg,Active,COc1ccc(C(C)(C)C(F)(F)F)cc1CN[C@H]1CCCN[C@H]1c1ccccc1
